# Reference: patent US8445444B2, “Compositions and methods for diagnosing, treating, and preventing prostate conditions” (Phigenix, Inc., priority 2007, dated 2013)
# “Also recorded” adds a separate entry of the source.
# Tests used:
# Type in all cases: cell-based, human
# DU145 [1] = test: Acridine orange/ethidium bromide membrane integrity
# Method: (§1) Analysis of Membrane Permeability: Acridine orange (AO)/ethidium bromide (EtBr) dual staining was performed to identify changes in cell membrane integrity, as well as apoptotic cells by staining the condensed chromatin. AO stains viable cells as well as early apoptotic cells, whereas EtBr stains late stage apoptotic cells that have lost […]. Briefly, cells were seeded into 2 chamber culture slides (BD Falcon, USA). Cells transfected with empty pIND plasmid/pvgRXR or pIND DEFB1/pvgRXR were induced for 24 or 48 h with media containing 10 μM Ponasterone A. Control cells were provided fresh media at 24 and 48 h. In order to determine the effect of PAX2 inhibition on membrane integrity, separate culture slides containing DU145, PC3 and LNCaP were treated with PAX2 siRNA and incubated for 4 days. Following this, cells were washed once with PBS and stained with 2 ml of a mixture (1:1) of AO (Sigma, USA) and EtBr (Promega, USA) (5 ug/ml) solution for 5 min. Following staining, the cells were again washed with PBS. Fluorescence was viewed by a Zeiss LSM 5 Pascal Vario 2 Laser Scanning Confocal Microscope (Carl Zeiss Jena, Germany). The excitation color wheel contain BS505-530 (green) and LP560 (red) filter blocks which allowed for the separation of emitted green light from AO into the green channel and red light from EtBr into the red channel. The laser power output and gain control settings within each individual experiment were identical between control and DEFB1 induced cells. The excitation was provided by a Kr/Ar mixed gas laser at wavelengths of 543 nm for AO and 488 nm for EtBr. Slides were analyzed under 40× magnification and digital images were stored as uncompressed TIFF files and exported into Photoshop CS software (Adobe Systems, San Jose, Calif.) for image processing and hard copy presentation.
# (§2) Analysis of membrane integrity: Acridine orange (AO)/ethidium bromide (EtBr) dual staining was performed to identify changes in cell membrane integrity, as well as apoptotic cells by staining the condensed chromatin. AO stains viable cells and early apoptotic cells, whereas EtBr stains late stage apoptotic cells that have compromised membranes. Briefly, PC3, DU145 and LNCaP cells were seeded into 2-chamber culture slides (BD Falcon). Cells transfected with empty plasmid or hBD-1 plasmid were induced for 24 or 48 h with media containing 10 μM Pon A, while control cells received fresh growth media at each time point. After induction, cells were washed once with PBS and stained with 2 ml of a mixture (1:1) of AO (Sigma, St. Louis, Mo.) and EtBr (Promega) (5 μg/ml) solution for 5 min and were again washed with PBS.
# (§3) Fluorescence was viewed by a Zeiss LSM 5 Pascal Vario 2 Laser Scanning Confocal Microscope (Carl Zeiss). The excitation color wheel contains BS505-530 (green) and LP560 (red) filter blocks which allowed for the separation of emitted green light from AO into the green channel and red light from EtBr into the red channel. The laser power output and gain control settings within each individual experiment were identical between control and hBD-1 induced cells. The excitation was provided by a Kr/Ar mixed gas laser at wavelengths of 543 nm for AO and 488 nm for EtBr. Slides were analyzed under 40× magnification and digital images were stored as uncompressed TIFF files and exported into Photoshop CS software (Adobe Systems) for image processing and hard copy presentation. […]
# LNCaP [2] = test: as above; details: 48 h hBD-1 induction
# Method: as §1, §2, §3
# PC3 [3] = test: as above
# Method: as §1, §2, §3
# LNCaP [4] = test: Pan-caspase detection (FAM-VAD-FMK, confocal); details: 24 h DEFB1 (hBD-1) induction
# DU145 [5] = test: Annexin V-FITC/propidium iodide flow cytometry
# Method: (§4) Flow Cytometry: PC3 and DU145 cells co-transfected with the DEFB1 expression system were grown in 60-mm dishes and induced for 12, 24, and 48 hours with 10 μM Ponasterone A. Following each incubation period, the medium was collected from the plates (to retain any detached cells) and combined with PBS used to wash the plates. The remaining attached cells were harvested by trypsinization and combined with the detached cells and PBS. The cells were then pelleted at 4° C. (500×g) for 5 min, washed twice in PBS, and resuspended in 100 ul of 1× Annexin binding buffer (0.1 M Hepes/NaOH at pH 7.4, 1.4 M NaCl, 25 mM CaCl2) containing 5 μl of Annexin V-FITC and 5 μl of PI. The cells were incubated at RT for 15 min in the dark, then diluted with 400 μl of 1× Annexin binding buffer and analyzed by FACscan (Becton Dickinson, San Jose, Calif.). All reactions were performed three times.
# (§5) Flow cytometry: PC3 and DU145 cells transfected with the hBD-1 expression system were grown in 60-mm dishes and induced for 12, 24, and 48 h with 10 μM Pon A. Following each incubation period, the medium was collected from the plates (to retain any detached cells) and combined with PBS used to wash the plates. The remaining attached cells were harvested by trypsinization and combined with the detached cells and PBS. The cells were then pelleted at 4° C. (500×g) for 5 min, washed twice in PBS, and resuspended in 100 μl, of 1× Annexin binding buffer (0.1 M Hepes/NaOH at pH 7.4, 1.4 M NaCl, 25 mM CaCl2) containing […] Annexin V-FITC and 5 μl of PI. The cells were incubated at RT for 15 min in the dark, then diluted with 400 μl of 1× Annexin binding buffer and analyzed by FACscan (Becton Dickinson, San Jose, Calif.). All reactions were performed three times.
# PC3 [6] = test: Annexin V-FITC/propidium iodide flow cytometry
# Method: as §4, §5
substance,measurement,setting,value
"DEFB1: human beta defensin-1 expressed from the ecdysone inducible pIND/DEFB1 construct, induced with Ponasterone A (DHYNCVSSGGQCLYSACPIFTKIQGTCYRGKAKCCK; UniProt P60022 33-68, looked up)",membrane integrity (AO/EtBr staining),"DU145 [1]; DU145, 24 h DEFB1 (hBD-1) induction",accumulation of EtBr in the cytoplasm
same,membrane integrity (AO/EtBr staining),"DU145 [1]; DU145, 48 h DEFB1 (hBD-1) induction",condensed nuclei and appeared yellow
same,membrane integrity (AO/EtBr staining),LNCaP [2],no observable alterations to membrane integrity
same,membrane integrity (AO/EtBr staining),"PC3 [3]; PC3, 24 h DEFB1 (hBD-1) induction",accumulation of EtBr in the cytoplasm
same,membrane integrity (AO/EtBr staining),"PC3 [3]; PC3, 48 h DEFB1 (hBD-1) induction",condensed nuclei and appeared yellow
same,caspase activity,LNCaP [4],No caspase activity was detected; also recorded: no green staining
same,caspase activity,LNCaP [4]; listed as hBD-1,no green staining
same,number of apoptotic cells (lower and upper right quadrants),"DU145 [5]; DU145, 12 h DEFB1 (hBD-1) induction",12%
same,number of apoptotic cells (lower and upper right quadrants),"DU145 [5]; DU145, 24 h",34%
same,number of apoptotic cells (lower and upper right quadrants),"DU145 [5]; DU145, 48 h",59%
same,number of apoptotic cells (lower and upper right quadrants),"PC3 [6]; PC3, 12 h DEFB1 (hBD-1) induction",10%
same,number of apoptotic cells (lower and upper right quadrants),"PC3 [6]; PC3, 24 h",20%
same,number of apoptotic cells (lower and upper right quadrants),"PC3 [6]; PC3, 48 h",44%
